This is an account of results in patent publication US11433143B2, “Nano-enabled immunotherapy in cancer” (The Regents of the University of California, priority 2017, dated 2022).

Data set [1] relates to 4T1 cells. Nature of the data set: ICD screening of chemo agents in 4T1 cells (CRT expression, HMGB1 release). The format is cell-based, mouse. The settings on record: multi-parameter cellular screening. From the text: One possible approach is to use chemotherapy to induce immunogenic cell death or ICD.
Data set [2] is described as follows: Determination of MTD doses in normal mice. Particulars: mouse, in vivo, single IV administration. How it is done:
FIG. 26. Panel A) Determination of MTD doses for free MTX and liposomal MTX in normal mice. MTD doses for free MTX and liposomal MTX were 3 and 15 mg/kg for single IV administration. Due to the high MTD of liposomal MTX, we tested the efficacy of the MTX liposome at low dose (1 mg/Kg×3 times) and high dose (3 mg/Kg×3 times). Panel B) Pilot tumor size measurement in 4T1 orthotopic tumor-bearing mice (n=6) receiving IV free drug or MTX-only liposome. For free drug treatment, we have included 2 two schedules namely single IV at 3 mg/kg at Day 8 or IV injections at 1 mg/kg at Day 8, 11 and 14. Since MTX liposome has a 5× higher MTD dose, the tumor mice received single IV at 3 mg/kg at Day 8 or IV injections at Day 8, 11 and 14.

For data set [3], the system named is 4T1 cells. Nature of the data set: CRT induction by liposomes in 4T1 cells (flow cytometry). Background: In flow cytometry, cells or beads pass a laser one at a time.
From the text: Panel B) All the particles were fully characterized abiotically and biotically.
For data set [4] the following is noted: cited from earlier work.
Data set [5] relates to KPC pancreatic cancer cells. Nature of the data set: Induction of ICD marker CRT (flow cytometry) and HMGB1 release (ELISA) in cultured KPC pancreatic cancer cells. It counts as cell-based, mouse. Particulars: 24 h; for induction of the ICD marker CRT: DOX 20 μM, OX 500 μM, activated DOX (DACHPt) 500 μM, flow cytometry; for HMGB1 release: ELISA. How it is done: (§1) FIG. 6. Panel A) Flow cytometry experiment showing the induction of the ICD marker, CRT, in cultured KPC pancreatic cancer cells in the presence of PBS, DOX (20 μM), OX (500 μM), and activated DOX (a.k.a. DACHPt, 500 μM) for 24 h. HMBG1 release was measured using ELISA. Panel B) Animal experimentation using 2 rounds of vaccination one week apart, followed by injecting live KPC cells SC on the contralateral side. The details of the animal vaccination experiment are provided in the methods section. Tumors were collected on day 26 for size measurement and IHC analysis. Panel C) Tumor size measurement on the contralateral side. Panel D) Explanted tumor at the contralateral side. Panel E) Spaghetti curves to show KPC tumor growth in the contralateral flank. Panel F) Tumor collection was performed after euthanizing the animal to conduct IHC. IHC staining of CD8 and Foxp3 T cells was used to calculate CD8/FoxP3 T cells ratio in each group. *p<0.05; **p<0.01
ICD is a modified form of apoptosis that can be used to initiate an effective immune response against endogenous tumor antigens (Kroemer et al. (2013) Ann. Rev. Immunol., 31: 51-72).^1 Since this model was 1st proposed against the backdrop of a select number of cancer drugs (Id.), we focused on the use of OX, because it is FDA-approved for PDAC treatment. As a component of the FOLFIRINOX regimen (in combination with irinotecan, 5-FU and folinic acid). For comparison, we also included the anthracycline antibiotic, DOX, as a positive control and cisplatin (Cis) as a negative control for the screening of PDAC cell lines, using cell surface CRT expression (Obeid et al. (2017) Nat. Med., 13(1): 54-61; Casares et al. (2005) J. Exp. Med. 202(12): 1691-1701; Fucikova et al. (2011) Canc. Res. 71(14): 4821-4833; Tesniere et al. (2010) Oncogene, 29(4): 482-491; Galluzzi et al. (2012) Oncogene, 31(15): 1869-1883; Martins et al. (2011) Oncogene, 30(10): 1147-1158). CRT is an endoplasmic reticulum (ER) stress protein that translocates to the surface membrane of cancer cells undergoing ICD (Obeid et al. (2017) Nat. Med., 13(1): 54-61; Fucikova et al. (2011) Canc. Res. 71(14): 4821-4833). Screening for CRT expression was performed in murine KPC cells, derived from a spontaneous tumor that developed in a transgenic Kras^LSL-G12D/+/Trp53^LSL-R172H/+/Pdx-1-Cre (KPC) mouse (Hingorani et al. (2005) Cancer cell, 7(5): 469-483).
The KPC model recapitulates many of disease features of human PDAC, including oncogene expression, development of a robust cancer stroma, extensive local invasion and distant metastases (Tones et al. (2013) PloS one, 8(11): e80580; Tseng et al. (2010) Clin. Canc. Res. 16(14): 3684-3695). DOX and OX and activated DOX induced the ICD marker CRT in cultured KPC pancreatic cancer cells (FIG. 6, panel A). […]

A further data set deals with KPC tumor. Nature of the data set: Vaccination with drug-treated dying KPC cells, live KPC challenge on contralateral side. The settings on record: for KPC tumor growth in the contralateral flank (spaghetti curves) / KPC tumor size on the contralateral side: 2 rounds of vaccination one week apart; for KPC tumor size on the contralateral side: tumors collected on day 26. The format is in vivo, mouse. How it is done:
as §1, with “Panel A) Flow cytometry experiment showing the induction of the ICD marker, CRT, in cultured KPC pancreatic cancer cells in the presence of PBS, DOX (20 μM), OX (500 μM), and activated DOX (a.k.a.” left out, “IHC.” for “IHC. IHC staining of CD8 and Foxp3 T cells was used to calculate CD8/FoxP3 T cells ratio in each group. *p<0.05; **p<0.01”
Animal experiments were performed using two rounds of vaccination one week apart, followed by injecting live KPC cells SC on the contralateral side (FIG. 6, panel B). Tumors were collected on day 26 for size measurement and IHC analysis.
Tumor collection was performed after euthanizing the animals to conduct IHC. IHC staining of CD8 and Foxp3 T cells was used to calculate CD8/FoxP3 T cell ratio in each group (see, e.g., FIG. 6, panel F).

In a further data set the test system is mTOR signaling. Kind of data set: Western blot of mTOR signaling (P-S6K phosphorylation) in 4T1 cells in tryptophan-deficient DMEM. The format is cell-based, mouse. The settings on record: 3 h, vs free IND. For orientation: Immunoblotting shows a protein as a band on a membrane.
A short description of a further data set: Solubility and log P. The format is physicochemical.
Data set [6] is described as follows: PK characteristics of free IND. Particulars: in vivo.

Consider `O=C1c2c(O)ccc(O)c2C(=O)c2c(NCCNCCO)ccc(NCCNCCO)c21` [MTX, mitoxantrone], for which, in the data set on 4T1 cells [1], the “ICD induction (calreticulin expression, release of HMGB1)” value (“ICD induction” below) is “can induce”. For the same compound, the MTD in [2] worked out at 3 mg/kg. In addition, the “CRT induction / ICD response in 4T1 cells (FIG. 31 panel B)” value in the data set on 4T1 cells [3] was “generation of an ICD response”.

As to `NS(=O)(=O)NCCNc1nonc1C(=NO)Nc1ccc(F)c(Br)c1` [epacadostat], the solubility in ethanol in data set [4] is greater than 20 mg/mL.

Consider `O=C1[O][Pt]2([NH][C@@H]3CCCC[C@H]3[NH]2)[O]C1=O` [OX, oxaliplatin], for which, in data set [5], the “induction of the ICD marker CRT” value is on record as “induced” and the HMGB1 release result is “increased”. Further, in the data set with KPC tumor, the “KPC tumor growth in the contralateral flank (spaghetti curves)” value was “decrease” and the “KPC tumor size on the contralateral side” value is “significant reduction”. Also, in the data set with KPC tumor (local and systemic tumor sites), the “CD8+/Foxp3+ ratio” value is “capable of increasing”.

In the case of `COc1cccc2c1C(=O)c1c(O)c3c(c(O)c1C2=O)C[C@@](O)(C(=O)CO)C[C@@H]3O[C@H]1C[C@H](N)[C@H](O)[C@H](C)O1` [DOX, doxorubicin], the “ICD induction” value in the data set on 4T1 cells [1] was “can induce”. Also, in data set [5], the “induction of the ICD marker CRT” value is reported as “induced” and the HMGB1 release result is recorded as “increased”. Besides, in the data set on KPC tumor, the “KPC tumor growth in the contralateral flank (spaghetti curves)” value is “decrease” and the “KPC tumor size on the contralateral side” value is on record as “significant reduction”.

`N.N.[Cl][Pt][Cl]` [cisplatin]: in the data set with 4T1 cells [1], the “ICD induction” value is recorded as “failed to induce the same effect”.

As for `O=c1[nH]cc(F)c(=O)[nH]1` [5-FU, 5-fluorouracil], the “ICD induction” value with 4T1 cells [1] was “failed to induce the same effect”.

On to 16:0 LysoPC-indoximod [IND-PL], for which, in the data set with mTOR signaling, the “effect on mTOR signaling (phosphorylation of P-S6K)” value was “enhanced effect”.

For the compound `Cn1cc(C[C@@H](N)C(=O)O)c2ccccc21` [Free IND, 1-methyl-D-tryptophan], the “water solubility” value in “Solubility and log P” is on record as “relatively water insoluble”. Moreover, in [6], the PK characteristics entry was “unfavorable PK characteristics”.

For `CC(=O)O[C@H]1C(=O)[C@@]2(C)[C@H]([C@H](OC(=O)c3ccccc3)[C@]3(O)C[C@H](OC(=O)[C@H](O)[C@@H](NC(=O)c4ccccc4)c4ccccc4)C(C)=C1C3(C)C)[C@]1(OC(C)=O)CO[C@@H]1C[C@@H]2O` [paclitaxel], the “ICD induction” value in the data set on 4T1 cells [1] is “ICD inducer”.
